According to publication PMC6943423, “Structure-Activity Study of an All-D Antimicrobial Octapeptide D2D” (Molecules, 2019):
Square brackets hold non-standard residues; d marks the D form. Peptide text beside a SMILES is read from it. d1Nal = N[C@H](Cc1cccc2ccccc12)C(=O)O; dNle = CCCC[C@@H](N)C(=O)O

Legend:
[1] = Peptide self-assembly nanostructure in solution by SAXS; type: physicochemical; conditions: for nanostructure in solution (self-assembly, SAXS model): lab SAXS, 50 mM Tris buffer pH 7.4, 2.5–10 mg/mL, ambient temperature; as to cross section of the nanotubes: values in Å
Protocol: SAXS experiments of D2D and the alanine-scan (compounds 1–8) were performed using a Bruker NANOSTAR equipped with a microfocus X-ray source (IμS Cu, InCoatec, Germany) and a VÅNTEC-2000 detector. Raw scattering data was calibrated to absolute intensity scale using water as a primary standard and radially averaged in order to obtain the 1D scattered intensity profile as a function of the scattering vector q (q = 4 π sin (θ/2)/λ), where θ is the scattering angle and λ is the X-ray wavelength of 1.54 Å. The samples were dissolved in 50 mM Tris buffer, pH 7.4 (10 mg/mL, 5 mg/mL and 2.5 mg/mL) and injected manually into a temperature-controlled quartz cell located in a vacuum chamber and measured for 180 min.
The scattering of the peptide D2D was analysed using a random polymer-like chain model:(1) Ichain(q)=ϕ·Vp·Δρ^2·Pchain(q) where ϕ is the volume fraction of the peptide, Vp is the volume of the polymer, Δρ is the excess scattering length density and Pchain(q) is the form factor of the free peptide chains given by the Debye expression for Gaussian chains:(2) gPchain(q)=2·exp[−(qRg)^2]−1+(qRg)^2/(qRg)^4 where Rg is the radius gyration of the peptide chains.
The scattering for compounds 2 and 7 was analysed using a rectangular sheet like model:(3) Isheet(q)=ϕ·Vp·Δρ^2·Np·Psheet(q)
Under the assumption that the length of the peptide sheets are much greater than the lateral dimension, i.e., c >> a, b, the form factor Psheet(q) is given by (4) Psheet(q)=Fc(q)1/2π∫02πAsheet(q, α)^2dα where the amplitude is given by (5) Asheet(q,α)=sin(qb cos(α)/2)/qb cos(α)/2· sin(qa sin(α)/2) /qa sin(α)/2) and (6) Fc(q)=(2 Si(qc)/(qc)−4 sin^2(qc/2)/(qc)^2 where Si(x)=∫0xt^−1sint dt .
The expression for the absolute scattering intensity, from this structure can be written as:(7) Inanotube(q)=ϕ·P·Vtot·Δρ^2·P(q)L·A(q)cs2·DW(q) where ϕ is the volume fraction of the peptide, P is the aggregation number given by P π(Ro2−Ri2)L/Vp where Vp is the volume of a peptide chain, Ro is the outer radius and Ri is the inner radius of the tubes, and L is the length. A(q)cs2 is given by:(8) A(q)cs2=Ro2A(q,Rc)−Rin2A(q,Ri)/(Ro2−Ri2) where A(q,x)=2J1(q·x)/(q·x) and J1(x) is the first order Bessel function.
The longitudinal form factor P(q)L is given by:(9) P(q)L=2 Si(QL)/QL −4 sin(sin^2(QL/2)/(QL)^2 where L is the length of the nanotubes and Si(x) is the Sine-function.
In addition, we introduced a slight distribution in the inner radius for possible shape fluctuations, and a Debye Waller factor, DW(q) = exp(−q^2 σ^2), describing possible surface roughness of the inner and outer wall.

[2] = tested on: human red blood cells; assay: Hemolytic activity; type: cell-based; conditions: red cells of human, 1 h, 150
Protocol: The percentage of hemolysis at 150 μM was determined for all compounds as previously described. Briefly, two-fold serial dilutions (2.35 to 150 μM) of compounds in PBS were mixed with a 0.5% v/v suspension of fresh human red blood cells (RBC) in the same buffer. After 1 h incubation at 37 °C, plates were centrifuged and aliquots of the supernatants were transferred to clear ELISA plates. Absorbance at 414 nm was determined and normalised with respect to a negative (PBS, 0%) and positive (melittin, 100%) control.

Row | Structure (SMILES) | nanostructure in solution (self-assembly, SAXS model) [1] | %H (% Hemolysis at 150 µM) [2] [%] | cross section of the nanotubes ([1]; SAXS nanotube model fit, 50 mM Tris pH 7.4) [Å]
1 | CCCC[C@@H](NC(=O)[C@@H](CCCCN)NC(=O)[C@@H](Cc1cccc2ccccc12)NC(=O)[C@@H](CCCCN)NC(=O)[C@@H](Cc1ccccc1)NC(=O)[C@@H](Cc1cccc2ccccc12)NC(=O)[C@@H](CCCCN)NC(=O)[C@@H](C)N)C(N)=O [Compound 1, ak(1-nal)fk(1-nal)k(nle)-NH2] (H-[dA][dK][d1Nal][dF][dK][d1Nal][dK][dNle]-NH2) | random polymer-like chains | 41 | 
2 | CCCC[C@@H](NC(=O)[C@@H](CCCCN)NC(=O)[C@@H](Cc1cccc2ccccc12)NC(=O)[C@@H](CCCCN)NC(=O)[C@@H](Cc1ccccc1)NC(=O)[C@@H](Cc1cccc2ccccc12)NC(=O)[C@@H](C)NC(=O)[C@H](N)CCCCN)C(N)=O [Compound 2, ka(1-nal)fk(1-nal)k(nle)-NH2] (H-[dK][dA][d1Nal][dF][dK][d1Nal][dK][dNle]-NH2) | larger filament like structures | 59 | 14
3 | CCCC[C@@H](NC(=O)[C@@H](CCCCN)NC(=O)[C@@H](Cc1cccc2ccccc12)NC(=O)[C@@H](CCCCN)NC(=O)[C@@H](Cc1ccccc1)NC(=O)[C@@H](C)NC(=O)[C@@H](CCCCN)NC(=O)[C@H](N)CCCCN)C(N)=O [Compound 3, kkafk(1-nal)k(nle)-NH2] (HELM PEPTIDE1{[dK].[dK].[dA].[dF].[dK].[O=C([C@@H](Cc1cccc2ccccc12)N[*:1])[*:2]].[dK].[CCCC[C@@H](N[*:1])C(=O)[*:2]].[am]}$$$$V2.0) | random polymer-like chains | 2 | 
4 | CCCC[C@@H](NC(=O)[C@@H](CCCCN)NC(=O)[C@@H](Cc1cccc2ccccc12)NC(=O)[C@@H](CCCCN)NC(=O)[C@@H](C)NC(=O)[C@@H](Cc1cccc2ccccc12)NC(=O)[C@@H](CCCCN)NC(=O)[C@H](N)CCCCN)C(N)=O [Compound 4, kk(1-nal)ak(1-nal)k(nle)-NH2] (H-[dK][dK][d1Nal][dA][dK][d1Nal][dK][dNle]-NH2; N-terminus assumed) | random polymer-like chains | 22 | 
5 | CCCC[C@@H](NC(=O)[C@@H](CCCCN)NC(=O)[C@@H](C)NC(=O)[C@@H](CCCCN)NC(=O)[C@@H](Cc1ccccc1)NC(=O)[C@@H](Cc1cccc2ccccc12)NC(=O)[C@@H](CCCCN)NC(=O)[C@H](N)CCCCN)C(N)=O [Compound 6, kk(1-nal)fkak(nle)-NH2] (HELM PEPTIDE1{[dK].[dK].[O=C([C@@H](Cc1cccc2ccccc12)N[*:1])[*:2]].[dF].[dK].[dA].[dK].[CCCC[C@@H](N[*:1])C(=O)[*:2]].[am]}$$$$V2.0; N-terminus assumed) | random polymer-like chains | 10 | 
6 | CCCC[C@@H](NC(=O)[C@@H](C)NC(=O)[C@@H](Cc1cccc2ccccc12)NC(=O)[C@@H](CCCCN)NC(=O)[C@@H](Cc1ccccc1)NC(=O)[C@@H](Cc1cccc2ccccc12)NC(=O)[C@@H](CCCCN)NC(=O)[C@H](N)CCCCN)C(N)=O [Compound 7, kk(1-nal)fk(1-nal)a(nle)-NH2] (H-[dK][dK][d1Nal][dF][dK][d1Nal][dA][dNle]-NH2) | larger filament like structures | 67 | 
7 | C[C@@H](NC(=O)[C@@H](CCCCN)NC(=O)[C@@H](Cc1cccc2ccccc12)NC(=O)[C@@H](CCCCN)NC(=O)[C@@H](Cc1ccccc1)NC(=O)[C@@H](Cc1cccc2ccccc12)NC(=O)[C@@H](CCCCN)NC(=O)[C@H](N)CCCCN)C(N)=O [Compound 8, kk(1-nal)fk(1-nal)ka-NH2] (HELM PEPTIDE1{[dK].[dK].[O=C([C@@H](Cc1cccc2ccccc12)N[*:1])[*:2]].[dF].[dK].[O=C([C@@H](Cc1cccc2ccccc12)N[*:1])[*:2]].[dK].[dA].[am]}$$$$V2.0; N-terminus assumed) | random polymer-like chains | 5 | 
8 | NCCCC[C@@H](N)C(=O)N[C@H](CCCCN)C(=O)N[C@H](Cc1cccc2ccccc12)C(=O)N[C@H](Cc1ccccc1)C(=O)N[C@H](CCCCN)C(N)=O [Compound 32, kk(1-nal)fk-NH2] (HELM PEPTIDE1{[dK].[dK].[O=C([C@@H](Cc1cccc2ccccc12)N[*:1])[*:2]].[dF].[dK].[am]}$$$$V2.0; N-terminus assumed) |  | 5 | 
9 | CCCC[C@@H](NC(=O)[C@@H](CCCCN)NC(=O)[C@@H](Cc1cccc2ccccc12)NC(=O)[C@@H](CCCCN)NC(=O)[C@@H](Cc1ccccc1)NC(=O)[C@@H](Cc1cccc2ccccc12)NC(=O)[C@@H](CCCCN)NC(=O)[C@H](N)CCCNC(=N)N)C(N)=O [Compound 33, rk(1-nal)fk(1-nal)k(nle)-NH2] (H-[dR][dK][d1Nal][dF][dK][d1Nal][dK][dNle]-NH2) |  | 60 | 
10 | CCCC[C@@H](NC(=O)[C@@H](CCCCN)NC(=O)[C@@H](Cc1cccc2ccccc12)NC(=O)[C@@H](CCCCN)NC(=O)[C@@H](Cc1ccccc1)NC(=O)[C@@H](Cc1cccc2ccccc12)NC(=O)[C@@H](CCCNC(=N)N)NC(=O)[C@H](N)CCCCN)C(N)=O [Compound 34, kr(1-nal)fk(1-nal)k(nle)-NH2] (H-[dK][dR][d1Nal][dF][dK][d1Nal][dK][dNle]-NH2; N-terminus assumed) |  | 35 | 
11 | CCCC[C@@H](NC(=O)[C@@H](CCCCN)NC(=O)[C@@H](Cc1cccc2ccccc12)NC(=O)[C@@H](CCCNC(=N)N)NC(=O)[C@@H](Cc1ccccc1)NC(=O)[C@@H](Cc1cccc2ccccc12)NC(=O)[C@@H](CCCCN)NC(=O)[C@H](N)CCCCN)C(N)=O [Compound 35, kk(1-nal)fr(1-nal)k(nle)-NH2] (H-[dK][dK][d1Nal][dF][dR][d1Nal][dK][dNle]-NH2; N-terminus assumed) |  | 49 | 
12 | CCCC[C@@H](NC(=O)[C@@H](CCCNC(=N)N)NC(=O)[C@@H](Cc1cccc2ccccc12)NC(=O)[C@@H](CCCCN)NC(=O)[C@@H](Cc1ccccc1)NC(=O)[C@@H](Cc1cccc2ccccc12)NC(=O)[C@@H](CCCCN)NC(=O)[C@H](N)CCCCN)C(N)=O [Compound 36, kk(1-nal)fk(1-nal)r(nle)-NH2] (H-[dK][dK][d1Nal][dF][dK][d1Nal][dR][dNle]-NH2; N-terminus assumed) |  | 51 | 
